Experimental data as given in article PMC11071649, “Synthesis and Selective Anticancer Activity Evaluation of 2-phenylacrylonitrile Derivatives as Tubulin Inhibitors” (Current Medicinal Chemistry, 2024).
Read-outs that look alike come from different tables or passages of the source.

What was measured:
Type in all cases: cell-based, human
[1] = system: HCT116 colectal cancer cell; test: MTT anti-proliferative assay, HCT116; conditions: for IC50: MTT, 48 h, read-out: IC50 HCT-116
Summary of the method: (§1)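 Human cell lines were obtained from ATCC and cultured in DMEM with FBS. Cells were plated in 96-well plates, exposed to compounds and assessed by MTT read-out. Activity was expressed as inhibition of net cell growth.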

[2] = system: MCF-10A normal breast cell; test: MTT assay, MCF-10A normal cells; conditions: 48 h
Summary of the method: as §1

[3] = system: HeLa cervical cancer cell; test: MTT anti-proliferative assay, HeLa; conditions: MTT, 48 h
Summary of the method: as §1

A549 lung cancer cell = test: MTT anti-proliferative assay, A549; conditions: MTT, 48 h
Summary of the method: as §1

[4] = system: diffuse large B-cell lymphoma SU-DHL-10 cell; test: MTT anti-proliferative assay, SU-DHL-10
Summary of the method: as §1

[5] = system: Raji B lymphoblastoid cell; test: MTT anti-proliferative assay, Raji
Summary of the method: as §1

MCF-7 breast cancer cell = test: MTT anti-proliferative assay, MCF-7; conditions: MTT, 48 h
Summary of the method: as §1

AGS gastric cancer cell = test: MTT anti-proliferative assay, AGS; conditions: for IC50: MTT, 48 h
Summary of the method: as §1

L-02 normal liver cell = test: MTT assay, L-02 normal cells; conditions: 48 h
Summary of the method: as §1

[6] = system: MGC-803 late stage differentiation gastric cancer cell; test: MTT anti-proliferative assay, MGC-803; conditions: for IC50: MTT, 48 h
Summary of the method: as §1

HepG2 hepatoma cell = test: MTT anti-proliferative assay, HepG2; conditions: for IC50: MTT, 48 h, read-out: IC50 HepG-2
Summary of the method: as §1

[7] = system: SGC-7901 early differentiation gastric cancer cell; test: MTT anti-proliferative assay, SGC-7901; conditions: for IC50: MTT, 48 h
Summary of the method: as §1

[8] = system: BEL-7402 liver cancer cell; test: MTT anti-proliferative assay, BEL-7402; conditions: for IC50: MTT, 48 h
Summary of the method: as §1

[9] = MTT, 48 h, read-out: IC50 SU-DHL-10

SMILES | IC50 [1] | IC50 [2] | IC50 [3] | IC50 (A549 lung cancer cell) | IC50 (MCF-7 breast cancer cell) | IC50 (AGS gastric cancer cell) | IC50 (L-02 normal liver cell) | IC50 [6] | IC50 (HepG2 hepatoma cell) | IC50 [7] | IC50 [8] | IC50 [4, 9] | IC50 ([5]; MTT, 48 h, read-out: IC50 Raji) | SI (selectivity index), IC50 (L-02)/IC50 (AGS) (AGS gastric cancer cell) | SI (selectivity index), IC50 (L-02)/IC50 (MGC-803) [6] | other results
N#C/C(=C\c1ccc(/C=C(\C#N)c2ccc(C(F)(F)F)cc2)cc1)c1ccc(C(F)(F)F)cc1 [Compound 1f2w] | > 100 µM | > 100 µM | > 100 µM | > 100 µM | > 100 µM | > 100 µM | > 100 µM | > 100 µM | > 100 µM | > 100 µM | > 100 µM | – | – | – | – | SI (selectivity index), IC50 (L-02)/IC50 (SU-DHL-10) [4]: > 4545; IC50 ([4]; read-out: IC50 SU-DHL-10 cells): 0.022 µM; SI (selectivity index), IC50 (L-02)/IC50 (Raji) [5]: > 2083; IC50 ([5]; read-out: IC50 Raji cells): 0.048 µM
N#C/C(=C\c1ccc(Cl)cc1)c1ccc(C(F)(F)F)cc1 [Compound 1f2e] | > 100 µM | > 100 µM | > 100 µM | > 100 µM | > 100 µM | > 100 µM | > 100 µM | > 100 µM | > 100 µM | > 100 µM | > 100 µM | > 100 µM | > 100 µM | – | – | –
N#C/C(=C\c1ccc(Cl)cc1)c1cccc(OC(F)(F)F)c1 [Compound 1b2c] | > 100 µM | > 100 µM | > 100 µM | > 100 µM | > 100 µM | > 100 µM | > 100 µM | > 100 µM | > 100 µM | > 100 µM | > 100 µM | > 100 µM | > 100 µM | – | – | –
N#C/C(=C\c1ccc(Br)cc1)c1ccccc1OC(F)(F)F [Compound 1c2c] | 17.2 ± 5.2 µM | > 100 µM | > 100 µM | > 100 µM | > 100 µM | 16.7 ± 2.3 µM | 42.2 ± 11.5 µM | 19.6 ± 6.7 µM | 27.9 ± 2.4 µM | > 100 µM | > 100 µM | > 100 µM | 42.4 ± 1.7 µM | > 2.5 | > 2.1 | SI (selectivity index), IC50 (L-02)/IC50 (HCT-116) [1]: > 2.4; SI (selectivity index), IC50 (L-02)/IC50 (HepG-2) (HepG2 hepatoma cell): > 1.5
N#C/C(=C\c1ccc(Cl)cc1)c1ccccc1OC(F)(F)F [Compound 1c2b] | > 100 µM | > 100 µM | > 100 µM | > 100 µM | > 100 µM | 31.4 ± 8.3 µM | > 100 µM | 29 ± 8.3 µM | 70.5 ± 25.4 µM | > 100 µM | > 100 µM | > 100 µM | > 100 µM | > 3.1 | > 3.4 | SI (selectivity index), IC50 (L-02)/IC50 (HepG-2) (HepG2 hepatoma cell): > 1.4
N#C/C(=C\c1cccc2ccccc12)c1ccc(OC(F)(F)F)cc1 [Compound 1a3c] | > 100 µM | > 100 µM | > 100 µM | > 100 µM | > 100 µM | > 100 µM | > 100 µM | > 100 µM | > 100 µM | > 100 µM | > 100 µM | > 100 µM | > 100 µM | – | – | –
COc1ccc(/C(C#N)=C/c2ccc(N(C)C)cc2)cc1 [Compound 1e2b] | > 100 µM | > 100 µM | > 100 µM | > 100 µM | > 100 µM | > 100 µM | > 100 µM | 15.1 ± 1.2 µM | > 100 µM | 22.6 µM | > 100 µM | > 100 µM | 12.7 ± 3.8 µM | – | > 6.6 | SI (selectivity index), IC50 (L-02)/IC50 (Raji) [5]: > 7.8; SI (selectivity index), IC50 (L-02)/IC50 (SGC-7901) [7]: > 4.4
COc1ccc(/C(C#N)=C/c2cc(OC)c(OC)c(OC)c2)cc1 [Compound 1e2a] | 7.2 ± 0.6 µM | 28.1 ± 3.6 µM | > 100 µM | > 100 µM | 36.9 ± 3.6 µM | 18.4 ± 1.9 µM | 47.5 ± 12.4 µM | 8.3 ± 1.2 µM | > 100 µM | 38.2 ± 9 µM | 46.8 ± 5.1 µM | 27.2 ± 5.3 µM | 11.6 ± 4.9 µM | > 2.8 | > 5.7 | SI (selectivity index), IC50 (L-02)/IC50 (HCT-116) [1]: > 6.5; SI (selectivity index), IC50 (L-02)/IC50 (SU-DHL-10) [4]: > 1.7; SI (selectivity index), IC50 (L-02)/IC50 (Raji) [5]: > 4.0; SI (selectivity index), IC50 (L-02)/IC50 (SGC-7901) [7]: > 1.2; SI (selectivity index), IC50 (L-02)/IC50 (BEL-7402) [8]: > 1.0
Cc1ccc(/C=C(\C#N)c2cccc(OC(F)(F)F)c2)cc1 [Compound 1b2e] | 25 ± 0.5 µM | > 100 µM | 61.7 ± 3.3 µM | > 100 µM | > 100 µM | 4.5 ± 2 µM | 54.2 ± 12.3 µM | 11.1 ± 0.3 µM | 38.2 ± 0.1 µM | 8.1 ± 2.9 µM | 39.4 ± 6.1 µM | 29.3 ± 2 µM | 43.1 ± 4.5 µM | > 11.9 | > 4.8 | SI (selectivity index), IC50 (L-02)/IC50 (HCT-116) [1]: > 2.1; SI (selectivity index), IC50 (L-02)/IC50 (SU-DHL-10) [4]: > 1.8; SI (selectivity index), IC50 (L-02)/IC50 (Raji) [5]: > 1.2; SI (selectivity index), IC50 (L-02)/IC50 (HepG-2) (HepG2 hepatoma cell): > 1.4; SI (selectivity index), IC50 (L-02)/IC50 (SGC-7901) [7]: > 6.6; SI (selectivity index), IC50 (L-02)/IC50 (BEL-7402) [8]: > 1.3
N#C/C(=C\c1ccc(N2CCCCC2)cc1)c1ccc(OC(F)(F)F)cc1 [Compound 1a2u] | > 100 µM | > 100 µM | > 100 µM | > 100 µM | > 100 µM | > 100 µM | > 100 µM | > 100 µM | > 100 µM | > 100 µM | > 100 µM | > 100 µM | > 100 µM | – | – | –
N#C/C(=C\c1ccc(Oc2ccccc2)cc1)c1ccc(C(F)(F)F)cc1 [Compound 1f2v] | > 100 µM | > 100 µM | > 100 µM | > 100 µM | > 100 µM | > 100 µM | > 100 µM | > 100 µM | > 100 µM | > 100 µM | > 100 µM | > 100 µM | > 100 µM | – | – | –
N#C/C(=C\c1ccc(N2CCCC2)cc1)c1ccc(OC(F)(F)F)cc1 [Compound 1a2t] | 30.8 ± 2.9 µM | > 100 µM | > 100 µM | > 100 µM | > 100 µM | 89.8 ± 1 µM | > 100 µM | 41.5 ± 2.1 µM | > 100 µM | 57.2 ± 14.3 µM | > 100 µM | > 100 µM | > 100 µM | > 1.1 | > 2.4 | SI (selectivity index), IC50 (L-02)/IC50 (HCT-116) [1]: > 3.2; SI (selectivity index), IC50 (L-02)/IC50 (SGC-7901) [7]: > 1.7
CCCOc1ccc(/C=C(\C#N)c2cccc(OC(F)(F)F)c2)cc1 [Compound 1b2k] | > 100 µM | > 100 µM | > 100 µM | > 100 µM | > 100 µM | > 100 µM | > 100 µM | > 100 µM | > 100 µM | > 100 µM | > 100 µM | > 100 µM | > 100 µM | – | – | –
CN(C)c1ccc(/C=C(\C#N)c2ccc(C(F)(F)F)cc2)cc1 [Compound 1f2a] | > 100 µM | > 100 µM | > 100 µM | > 100 µM | > 100 µM | > 100 µM | > 100 µM | > 100 µM | > 100 µM | > 100 µM | > 100 µM | > 100 µM | > 100 µM | – | – | –
N#C/C(=C\c1ccccn1)c1cccc(OC(F)(F)F)c1 [Compound 1b3a] | 19.3 ± 0.1 µM | 22.7 ± 3.5 µM | 38.8 ± 3.5 µM | 32.6 ± 1.1 µM | 25.5 ± 0.4 µM | 15.4 ± 0.5 µM | 35.9 ± 1.6 µM | 20.7 ± 1.5 µM | 21.5 ± 7.6 µM | 20.9 ± 5.1 µM | > 100 µM | 59.7 ± 0.8 µM | 56.6 ± 5.8 µM | – | – | SI (selectivity index), IC50 (L-02)/IC50 (BEL-7402) [8]: > 5.2
CC(C)c1ccc(/C=C(\C#N)c2cccc(OC(F)(F)F)c2)cc1 [Compound 1b2g] | > 100 µM | > 100 µM | > 100 µM | > 100 µM | > 100 µM | > 100 µM | > 100 µM | > 100 µM | > 100 µM | > 100 µM | > 100 µM | > 100 µM | > 100 µM | – | – | –
N#C/C(=C\c1ccccc1)c1cccc(OC(F)(F)F)c1 [Compound 1b2a] | > 100 µM | > 100 µM | > 100 µM | > 100 µM | > 100 µM | > 100 µM | > 100 µM | > 100 µM | > 100 µM | > 100 µM | > 100 µM | > 100 µM | > 100 µM | – | – | –
Cc1ccc(/C(C#N)=C/c2ccc(N(C)C)cc2)cc1 [Compound 1d2a] | > 100 µM | > 100 µM | > 100 µM | > 100 µM | > 100 µM | 23 ± 1 µM | > 100 µM | 18.8 ± 1.7 µM | > 100 µM | > 100 µM | > 100 µM | 19.9 ± 0.7 µM | 7.9 ± 0.5 µM | > 4.3 | > 5.3 | SI (selectivity index), IC50 (L-02)/IC50 (SU-DHL-10) [4]: > 5.0; SI (selectivity index), IC50 (L-02)/IC50 (Raji) [5]: > 12.5
